Legend:
[1] = tested on: SHL and cholesterol dehydrogenase; test: Two-enzyme system: SHL and cholesterol dehydrogenase; format: biochemical; conditions: Compound C 10 μM
Method: (§1) ^1H NMR and ^13C NMR spectrums were obtained by Bruker AMX-500 spectrophotometer wherein chemical shift values were expressed in ppm relative to tetramethylsilane (δ unit); fluorescence intensity was measured by using a fluorescence-grade quartz cuvette and a spectrofluorometer, i.e. Horiba Jobin Yvon Fluoromax-4. The other chemicals are purchased from Acros, Aldrich, TCI or Sigma Chemical corporations and directly used without purification. […] Chem. Soc. Jp. 1985, 58, 731; the entire contents thereof are incorporated herein by reference. SHL is obtained from GDS Technology Inc. (USA). D-3-hydroxybutyric acid dehydrogenase is purchased from TOYOBO (Product Code: HBD-301). Cholesterol dehydrogenase is purchased from Genzyme Corp. All measurements were performed in 50 mM Tris-HCl (TRIZMA Base, Tris, pH8). The latent fluorophore is synthesized in DMSO and should be added to a Tris-HCl buffer before use to make the concentration of DMSO not exceed 0.1% (v/v). […]
(§2) The measurement of fluorescence was performed at an excitation wavelength λex of 500 nm and an emission wavelength λem of 595 nm. […] The measured fluorescence intensity after subtraction of baseline (concentration of the biochemical molecule to be tested is zero) intensity therefrom was plotted versus the concentration of the biochemical molecule to be tested.

[2] = Latent fluorophore kept in SHL alone, NADH alone or Tris-HCl buffer (background fluorescence / stability); format: physicochemical; conditions: 20 μM
Method: (§3) ^1H NMR and ^13C NMR spectrums were obtained by Bruker AMX-500 spectrophotometer wherein chemical shift values were expressed in ppm relative to tetramethylsilane (δ unit); fluorescence intensity was measured by using a fluorescence-grade quartz cuvette and a spectrofluorometer, i.e. Horiba Jobin Yvon Fluoromax-4. The other chemicals are purchased from Acros, Aldrich, TCI or Sigma Chemical corporations and directly used without purification. […] Chem. Soc. Jp. 1985, 58, 731; the entire contents thereof are incorporated herein by reference. SHL is obtained from GDS Technology Inc. (USA). D-3-hydroxybutyric acid dehydrogenase is purchased from TOYOBO (Product Code: HBD-301). Cholesterol dehydrogenase is purchased from Genzyme Corp. All measurements were performed in 50 mM Tris-HCl (TRIZMA Base, Tris, pH8). The latent fluorophore is synthesized in DMSO and should be added to a Tris-HCl buffer before use to make the concentration of DMSO not exceed 0.1% (v/v).
(§4) The fluorescence profile of Compound C was analyzed in the presence of SHL and NADH in an aerobic environment. […] However, in case that Compound C was kept in a solution containing both 1 unit of SHL and 1 mM NADH at 37 °C, the fluorescence intensity of Compound B increases 57 times in 90 minutes, as shown in FIG. 1 (dotted line representing the baseline).

[3] = tested on: SHL and 3-hydroxybutyric acid dehydrogenase; test: Two-enzyme system: SHL and 3-hydroxybutyric acid dehydrogenase; format: biochemical; conditions: Compound C 10 μM; substrate 3-hydroxybutyric acid
Method: as §1, §2

[4] = molecular target: T1, Salicylate hydroxylase (SHL) (Pseudomonas putida, UniProt P23262); test: Fluorescence profile of the latent fluorophore in the presence of SHL and NADH, aerobic; format: biochemical
T1 construct: purchased GDS Technology Inc. (USA)
T1 sequence (P23262 1-434): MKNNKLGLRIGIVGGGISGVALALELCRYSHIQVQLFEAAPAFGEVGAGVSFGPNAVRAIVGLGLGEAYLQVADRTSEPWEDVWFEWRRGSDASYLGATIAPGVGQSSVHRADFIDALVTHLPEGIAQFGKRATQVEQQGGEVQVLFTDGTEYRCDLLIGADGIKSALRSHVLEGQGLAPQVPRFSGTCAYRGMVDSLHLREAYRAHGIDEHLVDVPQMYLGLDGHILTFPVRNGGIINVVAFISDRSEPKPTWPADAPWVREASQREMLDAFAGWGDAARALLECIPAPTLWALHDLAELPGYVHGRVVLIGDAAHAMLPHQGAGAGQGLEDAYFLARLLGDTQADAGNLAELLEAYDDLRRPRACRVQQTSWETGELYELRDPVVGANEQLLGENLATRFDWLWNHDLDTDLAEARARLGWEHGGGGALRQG
Method: as §3, §4

[5] = molecular target: T1, Salicylate hydroxylase (SHL); test: Effect of salicylic acid on the fluorescence intensity (SHL, Compound C, NADH); format: biochemical; conditions: salicylic acid added to SHL, Compound C and NADH, aerobic; fluorescence decreased with increasing concentration
Method: as §3

[6] = cited from earlier work

Structure (SMILES) | fluorescence intensity after addition of the substrate [1] | fluorescence intensity, kept in solution of NADH alone ([2]; kept even for several months) | fluorescence intensity, kept in solution of SHL alone ([2]; kept even for several months) | fluorescence intensity, kept in Tris-HCl buffer solution ([2]; pH 8, kept even for several months) | fluorescence intensity after addition of the substrate [3] | time until fluorescence could be detected ([4]; 1 unit SHL and 1 mM NADH added to Tris-HCl buffer containing Compound C) | increase of fluorescence intensity ([4]; Compound C in solution with 1 unit SHL and 1 mM NADH, 37 °C, in 90 minutes) | fluorescence intensity, only SHL added ([4]; only SHL added to Tris-HCl buffer containing Compound C, after 10 minutes) | conversion of Compound C to a fluorogenic compound [5] | blood level that may be fatal [6]
N#Cc1c(-c2nc3ccccc3s2)c(=O)oc2cc(OCc3ccc(C(=O)O)c(O)c3)ccc12 [Compound C] | significantly increased | near the baseline | near the baseline | near the baseline | significantly increased | within several seconds | 57 times | near the baseline | – | –
O=C(O)c1ccccc1O [salicylic acid] | – | – | – | – | – | – | – | – | inhibited | above 4.3 mM
